In ChEMBL document CHEMBL1201862, “PubChem BioAssay data set” (2004):
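Cells were grown in 96-well plates and exposed to each compound for 48 hours at five concentrations; endpoints were interpolated linearly between bracketing concentrations, or set to the highest concentration if not reached. GI50 is the concentration that inhibits growth by half.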 Active and inactive are the calls of the source. No stated cut-off is given here; in the data, active = GI50 up to about 1.1 µM and inactive = higher.

How the values were obtained:
Test in all cases: inhibition of tumour cell growth, NCI panel, 48 h
T47D = test system: T47D
NCI-H226 = test system: NCI-H226
U-251 = test system: U-251
786-0 = test system: 786-0
SK-MEL-2 = test system: SK-MEL-2
MDA-N = test system: MDA-N
LOX IMVI = test system: LOX IMVI
HL-60 = test system: HL-60
SK-MEL-28 = test system: SK-MEL-28
MCF7 = test system: MCF7
UO-31 = test system: UO-31
SN12C = test system: SN12C
SF-539 = test system: SF-539
HT-29 = test system: HT-29
CAKI-1 = test system: CAKI-1
NCI-H522 = test system: NCI-H522
CCRF-CEM = test system: CCRF-CEM
UACC-62 = test system: UACC-62
MDA-MB-231 = test system: MDA-MB-231
HCT-15 = test system: HCT-15
A498 = test system: A498
ACHN = test system: ACHN
SW-620 = test system: SW-620
K562 = test system: K562
OVCAR-4 = test system: OVCAR-4
SNB-75 = test system: SNB-75
NCI-H460 = test system: NCI-H460
SR = test system: SR
NCI/ADR-RES = test system: NCI/ADR-RES
Hs-578T = test system: Hs-578T
HOP-62 = test system: HOP-62
HCT-116 = test system: HCT-116
SF-295 = test system: SF-295
SK-MEL-5 = test system: SK-MEL-5
SK-OV-3 = test system: SK-OV-3
KM12 = test system: KM12
BT-549 = test system: BT-549
A549 = test system: A549
SNB-19 = test system: SNB-19
MOLT-4 = test system: MOLT-4
OVCAR-8 = test system: OVCAR-8
OVCAR-3 = test system: OVCAR-3
HOP-92 = test system: HOP-92
M14 = test system: M14
TK-10 = test system: TK-10
UACC-257 = test system: UACC-257
DU-145 = test system: DU-145
NCI-H23 = test system: NCI-H23
Malme-3M = test system: Malme-3M
OVCAR-5 = test system: OVCAR-5
SF-268 = test system: SF-268
RXF 393 = test system: RXF 393
IGROV-1 = test system: IGROV-1
MDA-MB-435 = test system: MDA-MB-435
PC-3 = test system: PC-3
EKVX = test system: EKVX
COLO 205 = test system: COLO 205
HCC 2998 = test system: HCC 2998
RPMI-8226 = test system: RPMI-8226

Measured: GI50

O=c1oc2cc(/N=C/c3ccc4c(c3)OCO4)ccc2c2ccccc12
> 100 µM: HCT-15
inactive: T47D 43.7 µM | NCI-H226 > 100 µM | U-251 43.1 µM | 786-0 35 µM | SK-MEL-2 92.9 µM | MDA-N > 100 µM | LOX IMVI 79.8 µM | HL-60 > 100 µM | SK-MEL-28 > 100 µM | MCF7 54.5 µM | UO-31 70 µM | SN12C 51.9 µM | SF-539 47 µM | HT-29 50.9 µM | CAKI-1 65 µM | NCI-H522 56.8 µM | CCRF-CEM 50.4 µM | UACC-62 55.8 µM | MDA-MB-231 77.4 µM | A498 49.8 µM | ACHN 58.1 µM | SW-620 97.9 µM | K562 > 100 µM | OVCAR-4 > 100 µM | SNB-75 15 µM | NCI-H460 39.8 µM | SR 25.5 µM | NCI/ADR-RES 77.1 µM | Hs-578T > 100 µM | HOP-62 36 µM | HCT-116 46.3 µM | SF-295 58.6 µM | SK-MEL-5 76.6 µM | SK-OV-3 34.1 µM | KM12 > 100 µM | BT-549 > 100 µM | A549 > 100 µM | SNB-19 50.2 µM | MOLT-4 33.3 µM | OVCAR-8 42.5 µM | OVCAR-3 > 100 µM | HOP-92 > 100 µM | M14 > 100 µM | TK-10 41.4 µM | UACC-257 > 100 µM | DU-145 > 100 µM | NCI-H23 > 100 µM | Malme-3M > 100 µM | OVCAR-5 > 100 µM | SF-268 61 µM | RXF 393 19.2 µM | IGROV-1 78.3 µM | MDA-MB-435 > 100 µM | PC-3 > 100 µM | EKVX 3.66 µM | COLO 205 56.6 µM

CC(C)(C)[Si](C)(C)OCC1OC(n2cc(F)c(=O)[nH]c2=O)CC1O[Si](C)(C)C(C)(C)C (centres undefined)
inactive: NCI-H226 19.4 µM | U-251 8.65 µM | 786-0 8.63 µM | SK-MEL-2 12.1 µM | MDA-N 6.21 µM | LOX IMVI 5.79 µM | HL-60 3.78 µM | MCF7 5.01 µM | UO-31 10.8 µM | SN12C 2.89 µM | SF-539 13.6 µM | HT-29 7.19 µM | CAKI-1 12.5 µM | NCI-H522 3.29 µM | CCRF-CEM 4.17 µM | UACC-62 5.14 µM | MDA-MB-231 7.5 µM | A498 6.87 µM | ACHN 10.1 µM | SW-620 9.93 µM | K562 4.14 µM | OVCAR-4 6.46 µM | SNB-75 4.03 µM | NCI-H460 2.4 µM | SR 3.1 µM | NCI/ADR-RES 16 µM | Hs-578T 11.1 µM | HOP-62 13.2 µM | HCT-116 7.66 µM | SF-295 6.97 µM | SK-MEL-5 3.27 µM | SK-OV-3 14 µM | KM12 4.19 µM | BT-549 5.43 µM | A549 10.5 µM | SNB-19 12.4 µM | MOLT-4 3.98 µM | OVCAR-8 16.1 µM | OVCAR-3 15.2 µM | M14 13.3 µM | TK-10 2.84 µM | UACC-257 4.02 µM | DU-145 3.46 µM | NCI-H23 6.53 µM | Malme-3M 16.4 µM | OVCAR-5 17 µM | SF-268 14.5 µM | HCC 2998 1.72 µM | RXF 393 4.42 µM | IGROV-1 6.71 µM | MDA-MB-435 12 µM | PC-3 3.16 µM | EKVX 8.04 µM | COLO 205 4.25 µM | RPMI-8226 3.5 µM
active: T47D 1.11 µM
7.24 µM: HCT-15
